Source: PubChem BioAssay AID328 (DTP/NCI, 2004)
Values joined by “and” are separate entries in the source; they are usually repeats but may differ in a detail not shown here. Identical values can stand only once. Toxic doses and inconclusive results are not listed.

Tested on: BDF1 mice, P388 leukemia ip, median survival T/C
Assay: NCI In Vivo Anticancer Drug Screen. Data for tumor model P388 Leukemia (intraperitoneal) in B6D2F1 (BDF1) mice
Conditions: endpoint: median survival time, higher = longer survival
Summary of the method: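 Compound-treated tumour-bearing mice were compared with vehicle-treated controls. Survival was recorded, and the value is the treated-group measurement divided by the control-group measurement (T/C).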

[1] = dose: 100.0 mg/kg/injection, schedule: Q04DX003 (ip), vehicle: saline with Tween-80
[2] = dose: 200.0 mg/kg/injection, schedule: Q04DX003 (ip), vehicle: saline with Tween-80
[3] = dose: 25.0 mg/kg/injection, schedule: Q01DX009 (ip), vehicle: saline
[4] = dose: 50.0 mg/kg/injection, schedule: Q01DX009 (ip), vehicle: saline
[5] = dose: 100.0 mg/kg/injection, schedule: Q01DX009 (ip), vehicle: saline
[6] = dose: 200.0 mg/kg/injection, schedule: Q01DX009 (ip), vehicle: saline
[7] = dose: 400.0 mg/kg/injection, schedule: Q04DX003 (ip), vehicle: saline with Tween-80
[8] = dose: 50.0 mg/kg/injection, schedule: Q01DX009 (ip), vehicle: saline with Tween-80
[9] = dose: 100.0 mg/kg/injection, schedule: Q01DX009 (ip), vehicle: saline with Tween-80
[10] = dose: 200.0 mg/kg/injection, schedule: Q01DX009 (ip), vehicle: saline with Tween-80
[11] = dose: 25.0 mg/kg/injection, schedule: Q01DX009 (ip), vehicle: Klucel (hydroxypropylcellulose) (HPC)
[12] = dose: 50.0 mg/kg/injection, schedule: Q01DX009 (ip), vehicle: Klucel (hydroxypropylcellulose) (HPC)
[13] = dose: 100.0 mg/kg/injection, schedule: Q01DX009 (ip), vehicle: Klucel (hydroxypropylcellulose) (HPC)
[14] = dose: 100.0 mg/kg/injection, schedule: Q04DX003 (ip), vehicle: Klucel (hydroxypropylcellulose) (HPC)
[15] = dose: 200.0 mg/kg/injection, schedule: Q04DX003 (ip), vehicle: Klucel (hydroxypropylcellulose) (HPC)
[16] = dose: 12.5 mg/kg/injection, schedule: Q04DX003 (ip), vehicle: Klucel (hydroxypropylcellulose) (HPC)
[17] = dose: 25.0 mg/kg/injection, schedule: Q04DX003 (ip), vehicle: Klucel (hydroxypropylcellulose) (HPC)
[18] = dose: 100.0 mg/kg/injection, schedule: Q04DX003 (ip), vehicle: saline
[19] = dose: 200.0 mg/kg/injection, schedule: Q04DX003 (ip), vehicle: saline

With `CC[C@]1(O)C[C@H](OC2CC(N(C)C)C(OC3CC(O)C(O)C(C)O3)C(C)O2)c2c(cc3c(c2O)C(=O)c2c(O)ccc(O)c2C3=O)[C@H]1C(=O)OC` (some centres undefined) the T/C (dose: 0.4 mg/kg/injection, schedule: Q01DX009 (ip), vehicle: Klucel (hydroxypropylcellulose) (HPC)) was 171 % of control, the T/C (dose: 0.8 mg/kg/injection, schedule: Q01DX009 (ip), vehicle: Klucel (hydroxypropylcellulose) (HPC)) was 158 % of control and 165 % of control and the T/C (dose: 1.6 mg/kg/injection, schedule: Q01DX009 (ip), vehicle: Klucel (hydroxypropylcellulose) (HPC)) was 201 % of control and 222 % of control. The T/C (dose: 3.46 mg/kg/injection, schedule: Q04DX003 (ip), vehicle: other) was 185 % of control, the T/C (dose: 5.76 mg/kg/injection, schedule: Q04DX003 (ip), vehicle: other) was 217 % of control and the T/C (dose: 9.6 mg/kg/injection, schedule: Q04DX003 (ip), vehicle: other) was 105 % of control.
In the case of `O=C(O)CCC(=O)/C=C1/Nc2ccccc2C1=O`, the T/C [1] is reported as 110 % of control and the T/C [2] is reported as 120 % of control.
In the case of `O=C1COc2ccccc2N1`, the T/C (dose: 100.0 mg/kg/injection, schedule: Q01DX001 (ip), vehicle: Klucel (hydroxypropylcellulose) (HPC)) is reported as 113 % of control and the T/C (dose: 200.0 mg/kg/injection, schedule: Q01DX001 (ip), vehicle: Klucel (hydroxypropylcellulose) (HPC)) is reported as 100 % of control.
With `Br/C(=N\Nc1nn[nH]n1)c1ccncc1` the T/C [3] was 90 % of control, the T/C [4] was 100 % of control and 104 % of control and the T/C [5] was 90 % of control and 100 % of control. For the same compound, the T/C [6] was 95 % of control and 113 % of control.
In the case of `CCOC(=O)c1ccc(OC(=O)Nc2ccccc2OC)cc1`, the T/C [1] is reported as 91 % of control, the T/C [2] is reported as 108 % of control and the T/C [7] is reported as 108 % of control.
With `NC(=S)NNC(=O)C(Cc1ccccc1)NC(=O)OCc1ccccc1` (centres undefined) the T/C (dose: 12.5 mg/kg/injection, schedule: Q01DX009 (ip), vehicle: saline with Tween-80) was 100 % of control and the T/C (dose: 25.0 mg/kg/injection, schedule: Q01DX009 (ip), vehicle: saline with Tween-80) was 94 % of control.
For `C=C(C)S(=O)(=O)c1ccc(C)cc1`, the T/C [1] was 108 % of control, the T/C [2] was 91 % of control and the T/C [7] was 88 % of control.
`CCOC(=O)C1(C)CCCCC1=O` (centres undefined) was tested, and the T/C [1] was 95 % of control, the T/C [2] was 104 % of control and the T/C [7] was 100 % of control.
With `CN=C(N)c1ccc(N=C(N)c2ccc(C(N)=Nc3ccc(C(N)=NC)cc3)cc2)cc1` the T/C (dose: 13.2 mg/kg/injection, schedule: Q01DX009 (ip), vehicle: saline) was 150 % of control and 172 % of control, the T/C (dose: 20.0 mg/kg/injection, schedule: Q01DX009 (ip), vehicle: saline) was 240 % of control and 218 % of control and the T/C (dose: 30.0 mg/kg/injection, schedule: Q01DX009 (ip), vehicle: saline) was 268 % of control and 218 % of control.
For `Clc1cccc(NC2=NCCN=C(Nc3cccc(Cl)c3Cl)SS2)c1Cl`, the T/C [8] was 102 % of control, the T/C [9] was 100 % of control and the T/C [10] was 96 % of control.
With `CC/C(=C(\c1ccccc1)c1ccc(OCCN(C)C)cc1)c1ccccc1` the T/C [11] was 122 % of control, the T/C [12] was 122 % of control and the T/C [13] was 102 % of control and 108 % of control.
`CCCCNC(=O)n1nnc2ccccc21` was tested, and the T/C [8] was 89 % of control, the T/C [9] was 106 % of control and the T/C [10] was 106 % of control.
`Cc1noc(C)c1CC1(Cc2c(C)noc2C)C(=O)CCC2(C)CCCC=C21` (centres undefined) was tested, and the T/C (dose: 50.0 mg/kg/injection, schedule: Q04DX003 (ip), vehicle: Klucel (hydroxypropylcellulose) (HPC)) was 91 % of control, the T/C [13] was 104 % of control and the T/C [14] was 104 % of control. The T/C (dose: 200.0 mg/kg/injection, schedule: Q01DX009 (ip), vehicle: Klucel (hydroxypropylcellulose) (HPC)) was 95 % of control and the T/C [15] was 91 % of control.
With `CC1OC(O[C@@H]2C=C3CC[C@@H]4[C@H](CC[C@]5(C)[C@@H](c6ccc(=O)oc6)CC[C@]45O)[C@@]3(C)CC2)C(O)C(O)C1O` (some centres undefined) the T/C (dose: 2.5 mg/kg/injection, schedule: Q01DX010 (ip), vehicle: carboxymethylcellulose (CMC)) was 105 % of control and the T/C (dose: 5.0 mg/kg/injection, schedule: Q01DX010 (ip), vehicle: carboxymethylcellulose (CMC)) was 105 % of control.
With `CCOC1(c2ccccc2)c2cc(Cl)ccc2NC(=O)N1CC` (centres undefined) the T/C [8] was 101 % of control, the T/C [9] was 98 % of control and the T/C [10] was 94 % of control.
In the case of `COc1ccc(/C=C2\CCCC3=C2N=C2SCC(=O)N2C3c2ccc(OC)cc2)cc1` (centres undefined), the T/C [1] is reported as 90 % of control and the T/C [7] is reported as 90 % of control.
For `Oc1c(Br)ccc2c(O)c(Br)ccc12`, the T/C (dose: 132.0 mg/kg/injection, schedule: Q04DX003 (ip), vehicle: saline with Tween-80) was 109 % of control, the T/C [2] was 114 % of control and the T/C (dose: 300.0 mg/kg/injection, schedule: Q04DX003 (ip), vehicle: saline with Tween-80) was 95 % of control.
`O=C(Nc1cccc(Cl)c1)c1cc(N=Nc2ccc([N+](=O)[O-])cc2Cl)ccc1O` was tested, and the T/C [11] was 114 % of control, the T/C [12] was 114 % of control and the T/C (dose: 133.0 mg/kg/injection, schedule: Q04DX003 (ip), vehicle: Klucel (hydroxypropylcellulose) (HPC)) was 115 % of control. For the same compound, the T/C [15] was 161 % of control and the T/C (dose: 400.0 mg/kg/injection, schedule: Q04DX003 (ip), vehicle: Klucel (hydroxypropylcellulose) (HPC)) was 155 % of control.
`Cc1cc(C)n(-c2nn3nnnc3c3ccccc23)n1` was tested, and the T/C [4] was 95 % of control, the T/C [5] was 95 % of control and the T/C [6] was 93 % of control.
In the case of `CC[C@@]1(O)C[C@H](OC2CC(N(C)C)C(OC3CC(O)C(OC4CCC(=O)C(C)O4)C(C)O3)C(C)O2)c2c(cc3c(c2O)C(=O)c2c(O)cccc2C3=O)[C@H]1C(=O)OC` (some centres undefined), the T/C (dose: 0.25 mg/kg/injection, schedule: Q01DX009 (ip), vehicle: water) is reported as 100 % of control, the T/C (dose: 0.5 mg/kg/injection, schedule: Q01DX009 (ip), vehicle: saline) is reported as 116 % of control and the T/C (dose: 2.0 mg/kg/injection, schedule: Q01DX009 (ip), vehicle: water) is reported as 154 % of control. The T/C (dose: 3.24 mg/kg/injection, schedule: Q04DX003 (ip), vehicle: water) was 169 % of control, the T/C (dose: 4.0 mg/kg/injection, schedule: Q01DX009 (ip), vehicle: saline) was 166 % of control and the T/C (dose: 4.0 mg/kg/injection, schedule: Q01DX009 (ip), vehicle: water) was 194 % of control. The T/C (dose: 4.7 mg/kg/injection, schedule: Q04DX003 (ip), vehicle: water) was 116 % of control, the T/C (dose: 5.4 mg/kg/injection, schedule: Q04DX003 (ip), vehicle: water) was 197 % of control and the T/C (dose: 8.0 mg/kg/injection, schedule: Q01DX009 (ip), vehicle: saline) was 236 % of control. The T/C (dose: 9.0 mg/kg/injection, schedule: Q04DX003 (ip), vehicle: water) was 203 % of control and the T/C (dose: 9.4 mg/kg/injection, schedule: Q04DX003 (ip), vehicle: water) was 184 % of control.
In the case of `N#CCc1ccc([N+](=O)[O-])cc1`, the T/C (dose: 6.25 mg/kg/injection, schedule: Q01DX009 (ip), vehicle: Klucel (hydroxypropylcellulose) (HPC)) is reported as 100 % of control, the T/C (dose: 12.5 mg/kg/injection, schedule: Q01DX009 (ip), vehicle: Klucel (hydroxypropylcellulose) (HPC)) is reported as 91 % of control and the T/C [16] is reported as 104 % of control. For the same compound, the T/C [17] was 117 % of control.
In the case of `S=c1cc(-c2ccc(Cl)cc2)ss1`, the T/C [3] is reported as 123 % of control, the T/C [4] is reported as 101 % of control and the T/C [5] is reported as 107 % of control. For the same compound, the T/C [18] was 107 % of control, the T/C [6] was 107 % of control and the T/C [19] was 110 % of control. For the same compound, the T/C (dose: 400.0 mg/kg/injection, schedule: Q01DX009 (ip), vehicle: saline) was 123 % of control and the T/C (dose: 400.0 mg/kg/injection, schedule: Q04DX003 (ip), vehicle: saline) was 100 % of control.
With `CSc1ccc(C(O)CNC(C)C)cc1C` (centres undefined) the T/C [4] was 100 % of control and the T/C [5] was 100 % of control.
`CCC(=O)OCC1OC(n2cnc3c(=S)nc(N)[nH]c32)C(OC(=O)CC)C1OC(=O)CC` (centres undefined) was tested, and the T/C [16] was 103 % of control, the T/C (dose: 16.0 mg/kg/injection, schedule: Q04DX003 (ip), vehicle: Klucel (hydroxypropylcellulose) (HPC)) was 118 % of control and the T/C [11] was 115 % of control. The T/C [17] was 173 % of control, the T/C [12] was 100 % of control and the T/C [14] was 122 % of control.
With `CC1(c2cccs2)C(=O)N(Cl)C(=O)N1Cl` (centres undefined) the T/C (dose: 12.5 mg/kg/injection, schedule: Q04DX003 (ip), vehicle: saline) was 100 % of control, the T/C (dose: 25.0 mg/kg/injection, schedule: Q04DX003 (ip), vehicle: saline) was 100 % of control and the T/C [4] was 122 % of control. For the same compound, the T/C (dose: 50.0 mg/kg/injection, schedule: Q04DX003 (ip), vehicle: saline) was 118 % of control, the T/C [5] was 119 % of control and the T/C [18] was 107 % of control and 109 % of control and 118 % of control. The T/C [6] was 120 % of control and the T/C [19] was 118 % of control.
